According to patent US11478474B2, “2-(3′-(hydroxymethyl)-1-methyl-5-((5-(2-methyl-4-(oxetan-3-yl)piperazin-1-yl)pyridin-2-yl)amino)-6-oxo-1,6-dihydro-[3,4′-bipyridin]-2′-yl)-7,7-dimethyl-7,8-dihydro-2H-cyclopenta[4,5]pyrrolo[1,2-a]pyrazin-1(6H)-one as a BTK inhibitor” (HUTCHISON MEDIPHARMA LIMITED, priority 2020, dated 2022):

Biological target: BTK recombinant protein (Homo sapiens (Human), UniProt Q06187)
Assay: Determination of biochemical BTK (Z'-LYTE kinase assay)
How it was run: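 Human BTK recombinant kinase (3.32 nM final) was preincubated with compound for 30 min at 4 °C. Reaction ran 1 h at room temperature with Tyr01 FRET peptide (2 μM) and ATP (32 μM); development protease then added. Coumarin 445 nm/fluorescein 520 nm emission ratio (400 nm excitation) gave inhibition across 8 concentrations, 3000–1.37 nM.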

BTK recombinant protein, sequence (Q06187 whole entry): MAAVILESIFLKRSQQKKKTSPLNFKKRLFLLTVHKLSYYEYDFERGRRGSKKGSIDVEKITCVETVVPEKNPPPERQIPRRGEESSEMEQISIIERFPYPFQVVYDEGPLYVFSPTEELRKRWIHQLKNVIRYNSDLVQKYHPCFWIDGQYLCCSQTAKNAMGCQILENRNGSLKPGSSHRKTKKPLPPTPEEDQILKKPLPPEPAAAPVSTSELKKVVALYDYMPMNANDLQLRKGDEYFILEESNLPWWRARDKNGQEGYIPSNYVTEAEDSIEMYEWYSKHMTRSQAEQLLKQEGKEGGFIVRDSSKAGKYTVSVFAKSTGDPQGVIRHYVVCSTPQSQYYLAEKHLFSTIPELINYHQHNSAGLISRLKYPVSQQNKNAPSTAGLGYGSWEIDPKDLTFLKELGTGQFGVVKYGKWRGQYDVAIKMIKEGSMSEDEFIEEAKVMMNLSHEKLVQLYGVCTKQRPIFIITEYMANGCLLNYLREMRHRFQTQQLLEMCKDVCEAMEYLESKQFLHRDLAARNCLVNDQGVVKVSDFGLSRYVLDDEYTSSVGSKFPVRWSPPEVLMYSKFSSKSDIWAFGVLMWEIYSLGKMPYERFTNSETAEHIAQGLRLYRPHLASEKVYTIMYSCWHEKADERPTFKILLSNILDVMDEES

| IC50 | SMILES |
| --- | --- |
| 8 nM | CC1CCc2cc3c(=O)n(-c4nccc(-c5cc(Nc6ccc(N7CCN(C8COC8)C[C@@H]7C)cn6)c(=O)n(C)c5)c4CO)ccn3c2C1 (mixture of isomers) [Compound 78] |
| 9 nM | C[C@@H]1CN(c2ccc(Nc3cc(-c4ccnc(-n5ccn6c7c(cc6c5=O)CCC7)c4CO)cn(C)c3=O)nc2)[C@@H](C)CN1C1COC1 [Compound 2, 2-(5-((5-((2S,5R)-2,5-dimethyl-4-(oxetan-3-yl)piperazin-1-yl)pyridin-2-yl)amino)-3′-(hydroxymethyl)-1-methyl-6-oxo-1,6-dihydro-[3,4′-bispyridin]-2′-yl)-7,8-dihydro-2H-cyclopenta[4,5]pyrrolo[1,2-a]pyrazin-1(6H)-one] |
| 12 nM | COCCN1CCN(c2ccc(Nc3cc(-c4ccnc(-n5ccn6c7c(cc6c5=O)CC(C)(C)C7)c4CO)cn(C)c3=O)nc2)[C@@H](C)C1 [Compound 8] |
| < 1 nM | Cn1cc(-c2ccnc(-n3ccn4c5c(cc4c3=O)CC(C)(C)C5)c2CO)cc(Nc2ccc(N3CCN(C4COC4)CC3)cn2)c1=O [Compound 9] |
| 8 nM | C[C@H]1CN(C2COC2)CCN1c1ccc(Nc2cc(-c3ccnc(-n4ccn5c6c(cc5c4=O)CC(C)(C)C6)c3CO)cn3ncnc23)nc1 [Compound 21] |
| 44 nM | C[C@H]1CN(C2COC2)CCN1c1ccc(Nc2cc(-c3ccnc(-n4ccn5c6c(cc5c4=O)CC(C)(C)C6)c3CO)cn3c(F)cnc23)nc1 [Compound 23] |
| 7 nM | C[C@H]1CN(C)CCN1c1ccc(Nc2cc(-c3ccnc(-n4ccn5c6c(cc5c4=O)CC(C)(C)C6)c3CO)cn(C)c2=O)nc1 [Compound 26] |
| 7 nM | C[C@@H]1CN(c2ccc(Nc3cc(-c4ccnc(-n5ccn6c7c(cc6c5=O)CC(C)(C)C7)c4CO)cn(C)c3=O)nc2)[C@@H](C)CN1C1COC1 [Compound 27] |
| 3 nM | Cn1cc(Nc2cc(-c3ccnc(-n4ccn5c6c(cc5c4=O)CC(C)(C)C6)c3CO)cn(C)c2=O)nn1 [Compound 28] |
| 9 nM | Cn1cc(-c2ccnc(-n3ccn4c5c(cc4c3=O)CC(C)(C)C5)c2CO)cc(Nc2cn(CCF)nn2)c1=O [Compound 31] |
| 9 nM | C[C@H]1CN(C2COC2)CCN1c1cnc(Nc2cc(-c3ccnc(-n4ccn5c6c(cc5c4=O)CC(C)(C)C6)c3CO)cn(C)c2=O)cn1 [Compound 43] |
| 22 nM | C[C@H]1CN(C2COC2)CCN1c1cnc(Nc2cc(-c3ccnc(-n4ccn5c6c(cc5c4=O)CC(C)(C)C6)c3CO)cn(C)c2=O)nc1 [Compound 44] |
| 4 nM | CN1CCN(C(=O)c2ccc(Nc3cc(-c4ccnc(-n5ccn6c7c(cc6c5=O)CC(C)(C)C7)c4CO)cn(C)c3=O)nc2)CC1 [Compound 48] |
| 6 nM | C[C@H]1CN(C2COC2)CCN1c1ccc(Nc2cc(-c3ccnc(-n4ccn5c6c(cc5c4=O)CC(C)(C)C6)c3CO)n[nH]c2=O)nc1 [Compound 49] |
| 24 nM | COCCN(C)c1ccc(Nc2cc(-c3ccnc(-n4ccn5c6c(cc5c4=O)CC(C)(C)C6)c3CO)cn(C)c2=O)nc1 [Compound 50] |
| 20 nM | C[C@H]1CN(C2COC2)CCN1c1ccc(Nc2cc(-c3ccnc(-n4ccn5c6c(cc5c4=O)CCC(F)(F)C6)c3CO)cn(C)c2=O)nc1 [Compound 56] |
| 6 nM | C[C@H]1CN(C2COC2)CCN1c1ccc(Nc2cc(-c3ccnc(-n4ccn5c(c(F)c6ccccc65)c4=O)c3CO)cn(C)c2=O)nc1 [Compound 57] |
| 8 nM | C[C@H]1CN(C2COC2)CCN1c1ccc(Nc2cc(-c3ccnc(-n4ccn5c6c(cc5c4=O)CC(F)(F)CC6)c3CO)cn(C)c2=O)nc1 [Compound 58] |
| 5 nM | C[C@@H]1CN(c2ccc(Nc3cc(-c4ccnc(-n5ccn6c(c(F)c7ccccc76)c5=O)c4CO)cn(C)c3=O)nc2)[C@@H](C)CN1C1COC1 [Compound 59] |
| 4 nM | C[C@H]1CN(C2COC2)CCN1c1ccc(Nc2cc(-c3ccnc(-n4ccn5c(c(F)c6cc(F)ccc65)c4=O)c3CO)cn(C)c2=O)nc1 [Compound 60] |
| 8 nM | C[C@H]1CN(C2COC2)CCN1c1ccc(Nc2cc(-c3ccnc(-n4cnn5c6c(cc5c4=O)CC(C)(C)C6)c3CO)cn(C)c2=O)nc1 [Compound 63] |
| 20 nM | C[C@H]1CN(C2COC2)CCN1c1ccc(Nc2cc(-c3ccnc(-n4ccn5c6c(cc5c4=O)CCC6)c3CO)cn(C)c2=O)nc1 [Compound 64] |
| 6 nM | CCn1cc(Nc2cc(-c3ccnc(-n4ccn5c6c(cc5c4=O)CC(C)(C)C6)c3CO)cn3ncnc23)nn1 [Compound 71] |
| 17 nM | C[C@H]1CN(C2COC2)CCN1c1ccc(Nc2cc(-c3ccnc(-n4ccn5c(cc6ccccc65)c4=O)c3CO)cn(C)c2=O)nc1 [Compound 74] |
| 11 nM | C[C@H]1CN(C2COC2)CCN1c1ccc(Nc2cc(-c3ccnc(-n4ccn5c(cc6cc(F)ccc65)c4=O)c3CO)cn(C)c2=O)nc1 [Compound 75] |
| < 1 nM | C[C@H]1CN(C2COC2)CCN1c1ccc(Nc2cc(-c3ccnc(-n4ncn5c6c(cc5c4=O)CC(C)(C)C6)c3CO)cn(C)c2=O)nc1 [Compound 79] |
